Blank lines part the entries; values can stand above or below the molecule they belong to.
Assays:
[1] = target: T1, AT1 receptor (Homo sapiens, UniProt P30556); details: Jankowski et al. 2007; cited from earlier work
T1 sequence (P30556 1-359): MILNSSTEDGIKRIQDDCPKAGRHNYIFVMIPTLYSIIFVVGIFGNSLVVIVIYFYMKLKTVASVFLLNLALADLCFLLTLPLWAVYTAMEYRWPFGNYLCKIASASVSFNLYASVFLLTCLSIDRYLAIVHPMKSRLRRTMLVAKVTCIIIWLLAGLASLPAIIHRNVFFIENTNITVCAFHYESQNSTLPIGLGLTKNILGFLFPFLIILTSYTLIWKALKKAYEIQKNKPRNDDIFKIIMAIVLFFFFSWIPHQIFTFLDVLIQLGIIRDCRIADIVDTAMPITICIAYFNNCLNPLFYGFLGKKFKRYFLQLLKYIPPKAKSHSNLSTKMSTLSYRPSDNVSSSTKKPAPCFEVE

[2] = target: T2, AT2 receptor (Homo sapiens, UniProt P50052); details: Jankowski et al. 2007; cited from earlier work
T2 sequence (P50052 1-363): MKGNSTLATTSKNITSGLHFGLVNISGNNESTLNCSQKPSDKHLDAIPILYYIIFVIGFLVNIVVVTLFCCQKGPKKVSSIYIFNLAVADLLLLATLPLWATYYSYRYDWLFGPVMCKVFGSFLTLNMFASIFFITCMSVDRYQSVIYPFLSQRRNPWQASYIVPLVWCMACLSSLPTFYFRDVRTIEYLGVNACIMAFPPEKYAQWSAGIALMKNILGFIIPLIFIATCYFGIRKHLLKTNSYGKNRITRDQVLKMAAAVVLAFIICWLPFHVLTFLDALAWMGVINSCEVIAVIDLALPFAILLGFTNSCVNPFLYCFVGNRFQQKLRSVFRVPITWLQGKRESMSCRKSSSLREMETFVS

[3] = test system: wild-type mice; details: Jankowski et al. 2007; cited from earlier work
[4] = target: Mas receptor; details: Dong et al., Cell 2001; read-out: EC50, affinity with Mas receptor; cited from earlier work
[5] = target: T3, angiotensin converter enzyme (ACE) (Rattus norvegicus, UniProt P47820); experiment: Plasmatic ACE activity, fluorimetric method with Hip-His-Leu substrate; format: biochemical, Wistar rats; details: 5 mM enalaprilate, assay specificity control
T3 construct: from tissue; host or cells: plasma of Wistar rats
T3 sequence (P47820 36-1238 limits assumed): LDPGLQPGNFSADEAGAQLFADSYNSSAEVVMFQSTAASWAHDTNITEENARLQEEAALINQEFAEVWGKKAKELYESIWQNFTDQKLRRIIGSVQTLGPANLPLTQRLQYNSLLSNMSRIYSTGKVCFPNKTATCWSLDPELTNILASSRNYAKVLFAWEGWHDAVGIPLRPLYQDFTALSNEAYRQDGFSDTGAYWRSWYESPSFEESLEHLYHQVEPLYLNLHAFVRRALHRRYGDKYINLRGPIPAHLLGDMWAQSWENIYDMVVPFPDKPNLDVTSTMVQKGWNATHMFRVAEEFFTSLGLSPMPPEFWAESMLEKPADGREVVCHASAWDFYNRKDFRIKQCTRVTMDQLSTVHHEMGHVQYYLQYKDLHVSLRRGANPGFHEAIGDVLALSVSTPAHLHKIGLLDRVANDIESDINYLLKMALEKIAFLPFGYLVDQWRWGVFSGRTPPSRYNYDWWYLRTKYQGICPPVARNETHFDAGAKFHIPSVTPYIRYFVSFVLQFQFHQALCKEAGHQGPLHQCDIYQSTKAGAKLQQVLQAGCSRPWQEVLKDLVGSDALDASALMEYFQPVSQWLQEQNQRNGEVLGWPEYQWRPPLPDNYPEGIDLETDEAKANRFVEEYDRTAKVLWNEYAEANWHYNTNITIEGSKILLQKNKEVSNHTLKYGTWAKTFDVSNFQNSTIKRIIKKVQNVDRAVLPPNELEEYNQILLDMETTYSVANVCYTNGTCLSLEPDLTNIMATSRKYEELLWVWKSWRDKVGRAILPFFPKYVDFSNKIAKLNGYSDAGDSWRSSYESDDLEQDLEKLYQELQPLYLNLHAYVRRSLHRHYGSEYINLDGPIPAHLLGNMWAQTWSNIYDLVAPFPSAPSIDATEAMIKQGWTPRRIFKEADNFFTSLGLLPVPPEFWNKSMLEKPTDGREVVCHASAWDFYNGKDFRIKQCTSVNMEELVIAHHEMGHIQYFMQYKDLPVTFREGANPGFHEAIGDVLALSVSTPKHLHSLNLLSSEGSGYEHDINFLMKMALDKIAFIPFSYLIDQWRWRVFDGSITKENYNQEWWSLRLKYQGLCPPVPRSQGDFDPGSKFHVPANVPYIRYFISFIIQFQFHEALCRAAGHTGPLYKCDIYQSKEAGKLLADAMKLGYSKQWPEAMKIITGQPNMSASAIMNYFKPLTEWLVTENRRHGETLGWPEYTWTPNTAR
Experimental: The plasmatic activity of ACE was measured by the fluorimetric method using Hip-His-Leu as substrate, as previously described (Santos, R. A. S. et al., Hypertension, 7:244-52, (1985)). Plasma aliquots (10 μL) of Wistar rats were incubated with a […] solution containing a 1 mM substrate (Hip-His-Leu) and 0.4 M of sodium borate, 0.9 M NaCl (pH=8.3) for 15 minutes at 37° C. The reaction was halted by adding 1.2 mL of NaOH at 0.34 M and […] of orthoftaldehyde (20 mg/mL in methanol). After 10 minutes at environment temperature, […] of HCl at 3 N was added. Later on, after a 5-minute 800×g centrifugation, the floating solution fluorescence was measured (a 365 nm excitation and a 495 nm emission). The blank was prepared by inverting the addition order of plasma and NaOH. A 0.5 to 20 nmol curve, containing the product (His-Leu) resulting of the substrate break (Hip-His-Leu) by ACE plasmatic activity, was prepared in each assay. In order to test the inhibition effect of ACE by the PEPTIDEs Ang-(1-7) and Ala^1-Ang-(1-7), 3.3×10^−7 or 3.3×10^−6 M of each PEPTIDE was added before the plasma addition. […] The percentage of enzymatic activity inhibition was estimated in function of the maximum activity obtained.

Molecule: Ala^1-Arg^2-Val^3-Tyr^4-Ile^5-His^6-Pro^7-Phe^8 (ARVYIHPF; Angiotensin-2; UniProt P01019 25-32, looked up, variant D1A) [Ala^1-Ang II]
- affinity with AT1 receptor compared with Ang II [1]: does not substantially differ from Ang II
- affinity with AT2 receptor compared with Ang II [2]: does not substantially differ from Ang II
- pressor activity compared with Ang II [3]: only a fraction of the Ang II activity

Molecule: NPFF: one PEPTIDE called NPFF, which had shown affinity with the Mas receptor, though reasonably feeble
- EC50 [4]: ~400 nM

- inhibition of the ACE activity [5]: 98%
Molecule: C[C@H](N[C@@H](CCc1ccccc1)C(=O)O)C(=O)N1CCC[C@H]1C(=O)O [enalaprilate]

From patent US9974825B2, “Peptides Des-[Asp1]-[Ala1], angiotensin-(1-7) agonist and pharmaceutical compositions for the treatment of diseases” (UNIVERSIDADE FEDERAL DE MINAS GERAIS, priority 2008, dated 2018)
